# Measured values: PubChem BioAssay (NCI)
#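 Growth conditions: 96-well plates. Treatment: test compound, 48 hours, 5 concentrations. Analysis: linear interpolation between bracketing concentrations; unreached endpoints set to highest concentration. GI50: concentration for 50% inhibition of growth. TGI is the concentration that stops growth completely.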
# Tests used:
# Assay in all cases: growth of human tumour cells (NCI), 48 h
# SNB-19 CNS = test system: SNB-19 CNS
# SF-539 CNS = test system: SF-539 CNS
# HCT-116 colon = test system: HCT-116 colon
# EKVX NSCLC = test system: EKVX NSCLC
# SF-268 CNS = test system: SF-268 CNS
# HT29 colon = test system: HT29 colon
# SK-OV-3 ovarian = test system: SK-OV-3 ovarian
# NCI-H23 lung = test system: NCI-H23 lung
# KM20L2 colon = test system: KM20L2 colon
# 786-0 renal = test system: 786-0 renal
# SK-MEL-2 melanoma = test system: SK-MEL-2 melanoma
# SK-MEL-28 melanoma = test system: SK-MEL-28 melanoma
# UACC-257 melanoma = test system: UACC-257 melanoma
# NCI-H226 lung = test system: NCI-H226 lung
# COLO 205 colon = test system: COLO 205 colon
# RPMI-8226 leukemia = test system: RPMI-8226 leukemia
# M14 melanoma = test system: M14 melanoma
# LXFL 529 NSCLC = test system: LXFL 529 NSCLC
# HOP-62 NSCLC = test system: HOP-62 NSCLC
# U251 CNS = test system: U251 CNS
# SNB-78 CNS = test system: SNB-78 CNS
# ACHN renal = test system: ACHN renal
# LOX IMVI melanoma = test system: LOX IMVI melanoma
# DLD-1 colon = test system: DLD-1 colon
# OVCAR-3 ovarian = test system: OVCAR-3 ovarian
# IGROV1 ovarian = test system: IGROV1 ovarian
# UACC-62 melanoma = test system: UACC-62 melanoma
# UO-31 renal = test system: UO-31 renal
# MALME-3M melanoma = test system: MALME-3M melanoma
# DMS 273 small cell lung = test system: DMS 273 small cell lung
# CAKI-1 renal = test system: CAKI-1 renal
# TK-10 renal = test system: TK-10 renal
# A498 renal = test system: A498 renal
# OVCAR-4 ovarian = test system: OVCAR-4 ovarian
# SW-620 colon = test system: SW-620 colon
# NCI-H522 lung = test system: NCI-H522 lung
# CCRF-CEM leukemia = test system: CCRF-CEM leukemia
# SN12C renal = test system: SN12C renal
# HCT-15 colon = test system: HCT-15 colon
# OVCAR-5 ovarian = test system: OVCAR-5 ovarian
# HL-60(TB) leukemia = test system: HL-60(TB) leukemia
# KM12 colon = test system: KM12 colon
# NCI-H460 lung = test system: NCI-H460 lung
# XF 498 CNS = test system: XF 498 CNS
# DMS 114 small cell lung = test system: DMS 114 small cell lung
# OVCAR-8 ovarian = test system: OVCAR-8 ovarian
# MOLT-4 leukemia = test system: MOLT-4 leukemia
# A549 NSCLC = test system: A549 NSCLC
# K-562 leukemia = test system: K-562 leukemia
# HOP-18 NSCLC = test system: HOP-18 NSCLC
# HCC-2998 colon = test system: HCC-2998 colon
# SF-295 CNS = test system: SF-295 CNS
# M19-MEL melanoma = test system: M19-MEL melanoma
# RXF 393 renal = test system: RXF 393 renal
# HOP-92 NSCLC = test system: HOP-92 NSCLC
# SNB-75 CNS = test system: SNB-75 CNS
# SR leukemia = test system: SR leukemia
# SK-MEL-5 melanoma = test system: SK-MEL-5 melanoma
smiles,measurement,setting,value
COC(=O)C1=C(C)N(NC(=O)c2ccccc2)C(C)(O)C12CCOC2=O (stereo not drawn),TGI,SNB-19 CNS,> 100 µM
same,TGI,SF-539 CNS,> 100 µM
same,TGI,HCT-116 colon,> 100 µM
same,TGI,EKVX NSCLC,> 100 µM
same,TGI,SF-268 CNS,> 100 µM
same,TGI,HT29 colon,> 100 µM
same,TGI,SK-OV-3 ovarian,> 100 µM
same,TGI,NCI-H23 lung,> 100 µM
same,TGI,KM20L2 colon,> 100 µM
same,TGI,786-0 renal,2.68 µM
same,TGI,SK-MEL-2 melanoma,2.41 µM
same,TGI,SK-MEL-28 melanoma,> 100 µM
same,TGI,UACC-257 melanoma,> 100 µM
same,TGI,NCI-H226 lung,> 100 µM
same,TGI,COLO 205 colon,> 100 µM
same,TGI,RPMI-8226 leukemia,> 100 µM
same,TGI,M14 melanoma,> 100 µM
same,TGI,LXFL 529 NSCLC,> 100 µM
same,TGI,HOP-62 NSCLC,> 100 µM
same,TGI,U251 CNS,> 100 µM
same,TGI,SNB-78 CNS,> 100 µM
same,TGI,ACHN renal,> 100 µM
same,TGI,LOX IMVI melanoma,> 100 µM
same,TGI,DLD-1 colon,> 100 µM
same,TGI,OVCAR-3 ovarian,> 100 µM
same,TGI,IGROV1 ovarian,> 100 µM
same,TGI,UACC-62 melanoma,> 100 µM
same,TGI,UO-31 renal,> 100 µM
same,TGI,MALME-3M melanoma,1.86 µM
same,TGI,DMS 273 small cell lung,> 100 µM
same,TGI,CAKI-1 renal,> 100 µM
same,TGI,TK-10 renal,> 100 µM
same,TGI,A498 renal,> 100 µM
same,TGI,OVCAR-4 ovarian,> 100 µM
same,TGI,SW-620 colon,> 100 µM
same,TGI,NCI-H522 lung,> 100 µM
same,TGI,CCRF-CEM leukemia,> 100 µM
same,TGI,SN12C renal,> 100 µM
same,TGI,HCT-15 colon,> 100 µM
same,TGI,OVCAR-5 ovarian,> 100 µM
same,TGI,HL-60(TB) leukemia,> 100 µM
same,TGI,KM12 colon,> 100 µM
same,TGI,NCI-H460 lung,> 100 µM
same,TGI,XF 498 CNS,> 100 µM
same,TGI,DMS 114 small cell lung,> 100 µM
same,TGI,OVCAR-8 ovarian,> 100 µM
same,TGI,MOLT-4 leukemia,> 100 µM
same,TGI,A549 NSCLC,> 100 µM
same,TGI,K-562 leukemia,> 100 µM
same,TGI,HOP-18 NSCLC,> 100 µM
same,TGI,HCC-2998 colon,> 100 µM
same,TGI,SF-295 CNS,> 100 µM
CSc1nc2c(nc(C)c(=O)n2C2OCC(OC(C)=O)C(OC(C)=O)C2OC(C)=O)c(=O)[nH]1 (stereo not drawn),TGI,SNB-19 CNS,> 100 µM
same,TGI,M19-MEL melanoma,> 100 µM
same,TGI,HCT-116 colon,> 100 µM
same,TGI,EKVX NSCLC,> 100 µM
same,TGI,SF-268 CNS,> 100 µM
same,TGI,RXF 393 renal,> 100 µM
same,TGI,HT29 colon,> 100 µM
same,TGI,SK-OV-3 ovarian,> 100 µM
same,TGI,NCI-H23 lung,> 100 µM
same,TGI,KM20L2 colon,> 100 µM
same,TGI,786-0 renal,> 100 µM
same,TGI,SK-MEL-2 melanoma,> 100 µM
same,TGI,SK-MEL-28 melanoma,> 100 µM
same,TGI,UACC-257 melanoma,> 100 µM
same,TGI,COLO 205 colon,> 100 µM
same,TGI,RPMI-8226 leukemia,> 100 µM
same,TGI,M14 melanoma,> 100 µM
same,TGI,LXFL 529 NSCLC,> 100 µM
same,TGI,HOP-62 NSCLC,> 100 µM
same,TGI,U251 CNS,> 100 µM
same,TGI,ACHN renal,> 100 µM
same,TGI,HOP-92 NSCLC,> 100 µM
same,TGI,SNB-75 CNS,> 100 µM
same,TGI,LOX IMVI melanoma,> 100 µM
same,TGI,DLD-1 colon,> 100 µM
same,TGI,OVCAR-3 ovarian,> 100 µM
same,TGI,IGROV1 ovarian,> 100 µM
same,TGI,UACC-62 melanoma,> 100 µM
same,TGI,UO-31 renal,> 100 µM
same,TGI,MALME-3M melanoma,> 100 µM
same,TGI,DMS 273 small cell lung,> 100 µM
same,TGI,CAKI-1 renal,> 100 µM
same,TGI,TK-10 renal,> 100 µM
same,TGI,A498 renal,> 100 µM
same,TGI,OVCAR-4 ovarian,> 100 µM
same,TGI,SW-620 colon,> 100 µM
same,TGI,NCI-H522 lung,> 100 µM
same,TGI,CCRF-CEM leukemia,> 100 µM
same,TGI,SR leukemia,> 100 µM
same,TGI,SK-MEL-5 melanoma,> 100 µM
same,TGI,SN12C renal,> 100 µM
same,TGI,HCT-15 colon,> 100 µM
same,TGI,OVCAR-5 ovarian,> 100 µM
same,TGI,HL-60(TB) leukemia,> 100 µM
same,TGI,KM12 colon,> 100 µM
same,TGI,NCI-H460 lung,> 100 µM
same,TGI,XF 498 CNS,> 100 µM
same,TGI,DMS 114 small cell lung,> 100 µM
same,TGI,OVCAR-8 ovarian,> 100 µM
same,TGI,MOLT-4 leukemia,> 100 µM
same,TGI,A549 NSCLC,> 100 µM
same,TGI,K-562 leukemia,> 100 µM
same,TGI,HCC-2998 colon,> 100 µM
same,TGI,SF-295 CNS,> 100 µM
CCC[CH2][Ge]([CH2]CCC)([CH2]CCC)[O]C(=O)CC(=O)c1ccccc1,GI50,SNB-19 CNS,11.7 µM
same,TGI,SNB-19 CNS,24 µM
same,GI50,M19-MEL melanoma,3.83 µM
same,TGI,M19-MEL melanoma,19.3 µM
same,GI50,SF-539 CNS,1.57 µM
same,TGI,SF-539 CNS,6.17 µM
same,GI50,HCT-116 colon,0.191 µM
same,TGI,HCT-116 colon,12.3 µM
same,GI50,EKVX NSCLC,0.955 µM
same,TGI,EKVX NSCLC,16.2 µM
same,GI50,SF-268 CNS,4.57 µM
same,TGI,SF-268 CNS,21.6 µM
same,GI50,RXF 393 renal,0.728 µM
same,TGI,RXF 393 renal,3.65 µM
same,GI50,HT29 colon,0.64 µM
same,TGI,HT29 colon,11.1 µM
same,GI50,SK-OV-3 ovarian,0.667 µM
same,TGI,SK-OV-3 ovarian,14 µM
same,GI50,NCI-H23 lung,0.28 µM
same,TGI,NCI-H23 lung,14.8 µM
same,GI50,KM20L2 colon,0.77 µM
same,TGI,KM20L2 colon,17 µM
same,GI50,SK-MEL-2 melanoma,2.22 µM
same,TGI,SK-MEL-2 melanoma,17.9 µM
same,GI50,SK-MEL-28 melanoma,4.48 µM
same,TGI,SK-MEL-28 melanoma,19.1 µM
same,GI50,NCI-H226 lung,3.23 µM
same,TGI,NCI-H226 lung,17.2 µM
same,GI50,COLO 205 colon,1.55 µM
same,TGI,COLO 205 colon,13.3 µM
same,GI50,RPMI-8226 leukemia,0.959 µM
same,TGI,RPMI-8226 leukemia,> 100 µM
same,GI50,M14 melanoma,1.42 µM
same,TGI,M14 melanoma,8.86 µM
same,GI50,LXFL 529 NSCLC,0.325 µM
same,TGI,LXFL 529 NSCLC,13.7 µM
same,GI50,HOP-62 NSCLC,2.2 µM
same,TGI,HOP-62 NSCLC,13.6 µM
same,GI50,U251 CNS,3.27 µM
same,TGI,U251 CNS,17.6 µM
same,GI50,ACHN renal,2.67 µM
same,TGI,ACHN renal,16.8 µM
same,GI50,HOP-92 NSCLC,0.331 µM
same,TGI,HOP-92 NSCLC,9.88 µM
same,GI50,LOX IMVI melanoma,0.313 µM
same,TGI,LOX IMVI melanoma,1.72 µM
same,GI50,DLD-1 colon,0.77 µM
same,TGI,DLD-1 colon,16 µM
same,GI50,OVCAR-3 ovarian,2.63 µM
same,TGI,OVCAR-3 ovarian,17.6 µM
same,GI50,IGROV1 ovarian,2.2 µM
same,TGI,IGROV1 ovarian,13.9 µM
same,GI50,UACC-62 melanoma,1.7 µM
same,TGI,UACC-62 melanoma,10.1 µM
same,GI50,UO-31 renal,1.66 µM
same,TGI,UO-31 renal,15.9 µM
same,GI50,MALME-3M melanoma,1.47 µM
same,TGI,MALME-3M melanoma,13 µM
same,GI50,DMS 273 small cell lung,0.752 µM
same,TGI,DMS 273 small cell lung,13.4 µM
same,GI50,CAKI-1 renal,6.37 µM
same,TGI,CAKI-1 renal,20.6 µM
same,GI50,TK-10 renal,7.03 µM
same,TGI,TK-10 renal,21 µM
same,GI50,OVCAR-4 ovarian,2.49 µM
same,TGI,OVCAR-4 ovarian,21.3 µM
same,GI50,SW-620 colon,0.825 µM
same,TGI,SW-620 colon,12.6 µM
same,GI50,NCI-H522 lung,0.261 µM
same,TGI,NCI-H522 lung,10.4 µM
same,GI50,CCRF-CEM leukemia,0.266 µM
same,TGI,CCRF-CEM leukemia,10.6 µM
same,GI50,SR leukemia,0.707 µM
same,TGI,SR leukemia,33.6 µM
same,GI50,SN12C renal,0.538 µM
same,TGI,SN12C renal,15 µM
same,GI50,HCT-15 colon,0.316 µM
same,TGI,HCT-15 colon,10.4 µM
same,GI50,OVCAR-5 ovarian,2.17 µM
same,TGI,OVCAR-5 ovarian,14.9 µM
same,GI50,HL-60(TB) leukemia,0.138 µM
same,TGI,HL-60(TB) leukemia,11.5 µM
same,GI50,KM12 colon,0.883 µM
same,TGI,KM12 colon,16 µM
same,GI50,NCI-H460 lung,0.325 µM
same,TGI,NCI-H460 lung,12.4 µM
same,GI50,XF 498 CNS,11.6 µM
same,TGI,XF 498 CNS,23.8 µM
same,GI50,DMS 114 small cell lung,0.0424 µM
same,TGI,DMS 114 small cell lung,3.32 µM
same,GI50,OVCAR-8 ovarian,1.65 µM
same,TGI,OVCAR-8 ovarian,18.3 µM
same,GI50,MOLT-4 leukemia,0.457 µM
same,TGI,MOLT-4 leukemia,18 µM
same,GI50,A549 NSCLC,0.735 µM
same,TGI,A549 NSCLC,15.9 µM
same,GI50,K-562 leukemia,0.346 µM
same,TGI,K-562 leukemia,14.7 µM
same,GI50,HOP-18 NSCLC,10.8 µM
same,TGI,HOP-18 NSCLC,22.7 µM
same,GI50,HCC-2998 colon,1.3 µM
same,TGI,HCC-2998 colon,6.16 µM
